Test results taken from patent US8519110B2, “mRNA cap analogs” (Board of Supervisors of Louisiana State University And …, priority 2008, dated 2013).

Experiments:
[1] = tested on: rabbit reticulocyte lysate system; assay: In vitro translation efficiency of capped luciferase mRNA, method I transcripts; format: biochemical; conditions: for Translation efficiency in comparison with m^7GpppG-LUC mRNA, Experiment No. 1: experiment 1; for Translation efficiency in comparison with m^7GpppG-LUC mRNA, Experiment No. 2: experiment 2; for Translation efficiency in comparison with m^7GpppG-LUC mRNA, Experiment No. 3: experiment 3; for Translation efficiency in comparison with m^7GpppG-LUC mRNA, Mean: mean of experiments
Description: A DNA template for in vitro transcription was synthesized by PCR from the plasmid SP6p-5′UTR β-globin-LUCiferase. The template contained the SP6 promoter followed by the 5′-UTR sequence of rabbit β-globin mRNA and the entire firefly luciferase mRNA coding region. A typical in vitro transcription reaction mixture (50 μl) contained SP6 transcription buffer (Fermentas, cat. no. EP0131), 2 μg of DNA template, 2 U/μl RiboLock Ribonuclease Inhibitor (Fermentas), 2 mM each of ATP, CTP, and UTP, 0.1 mM GTP, and 1 mM dinucleotide cap analog. The reaction mixture was incubated at 37° C. for 5 min before the addition of SP6 RNA polymerase (Fermentas) to a final concentration of 2 U/μl. After 30 min of incubation at 37° C., GTP was added to a final concentration of 1 mM, and the reaction continued for an additional 90 min. The reaction mixtures were then treated with 1 U of DNase RQ1 (RNAse-free, Promega) per μg of template DNA in transcription buffer at 37° C. for 20 min. RNA transcripts were purified on DEPC-treated Sephadex G-50 spin columns (Pharmacia). The integrity of transcripts was confirmed by electrophoresis on a non-denaturating, 1% agarose gel. Concentrations were determined spectrophotometrically. The transcripts were stored at −80° C. until used.
(§1) A micrococcal nuclease-treated rabbit reticulocyte lysate system (Flexi Rabbit Reticulocyte Lysate System, Promega) was used for in vitro translation. Translation reactions were performed in 10 μl for 60 min at 30° C. A typical reaction mixture contained 40% reticulocyte lysate, the 20 “standard” amino acids (0.01 mM each), MgCl2 (1.2 mM), potassium acetate (170 mM), and mRNA (five different concentrations of each transcript, ranging from 0.25 to 4 μg/ml). Luciferase activity was measured in a luminometer (Glomax, Promega). Linear regression was used to fit the data points (luciferase activity versus concentration of mRNA transcript), and translational efficiency was defined as the slope of this line. The relative translational efficiencies of the test mRNAs were compared to that of m^7GpppG-capped luciferase mRNA, the latter being defined as 1.0.

eIF4E = eIF4E (Mus musculus, UniProt P63073); assay: Binding affinity of cap analogs to eIF4E by fluorescence titration; conditions: equilibrium association constant; for Cap analog/eIF4E affinity (KAS): 20 °C, pH 7.2, ionic strength 150 mM
Description: Fluorescence titration measurements were carried out on an LS-50B or LS-55 spectrofluorometer (Perkin Elmer Co.) at 20.0±0.2° C. in 50 mM HEPES/KOH (pH 7.2), 0.5 mM EDTA, and 1 mM DTT, with ionic strength adjusted to 150 mM by addition of KCl. Various cap analogue solutions, of increasing concentration, were added in 1 μl aliquots to 1.4 ml of 0.1 or 0.2 μM protein solutions. Fluorescence intensities were measured with excitation at 280 nm or 295 nm with 2.2 nm bandwidth, and detection at 337 nm with 4 nm bandwidth and a 290-nm cut-off filter. The data were corrected for sample dilution and inner filter effects. Equilibrium association constants (Kas) were determined by fitting the theoretical dependence of fluorescence intensity on cap analog concentration to the experimental data, as otherwise described in A. Niedźwiecka et al., “Biophysical studies of eIF4E cap-binding protein: recognition of mRNA 5′ cap structure and synthetic fragments of eIF4G and 4E-BP1 proteins,” J. Mol. Biol., vol. 312, pp. 615-635 (2002). The concentration of protein was allowed to be a free parameter in the equilibrium equation, to determine the amount of “active” protein. The final Kas was calculated as a weighted average of three to ten independent titrations, with the weights taken as the reciprocals of the squares of the numerical standard deviations. Numerical nonlinear least-square regression analysis was performed using ORGIN 6.0 (Microcal Software Inc., USA).
The binding affinities of eukaryotic eIF4E for various cap analogs were determined by fluorescence quenching. This biophysical test allows one to predict the potential efficacy of cap analogs in translation. Those having higher affinities for eIF4E than the unmodified cap analog (m^7GpppG) are expected to be better recognized by the translational machinery, leading to higher translational efficiencies. They also are expected to compete more effectively with unmodified mRNA when free cap dinucleotides are used to inhibit translation. See generally E. Grudzien-Nogalska et al., “Synthesis of anti-reverse cap analogs (ARCAs) and their applications in mRNA translation and stability,” Methods Enzymol., vol. 431, pp. 203-227 (2007).

Human DcpS = target: T1, Human DcpS (Homo sapiens, UniProt Q96C86); assay: Assay of susceptibility to DcpS (RP HPLC); format: biochemical
T1 construct: made in house; host or cells: Escherichia coli
T1 sequence (Q96C86 1-337): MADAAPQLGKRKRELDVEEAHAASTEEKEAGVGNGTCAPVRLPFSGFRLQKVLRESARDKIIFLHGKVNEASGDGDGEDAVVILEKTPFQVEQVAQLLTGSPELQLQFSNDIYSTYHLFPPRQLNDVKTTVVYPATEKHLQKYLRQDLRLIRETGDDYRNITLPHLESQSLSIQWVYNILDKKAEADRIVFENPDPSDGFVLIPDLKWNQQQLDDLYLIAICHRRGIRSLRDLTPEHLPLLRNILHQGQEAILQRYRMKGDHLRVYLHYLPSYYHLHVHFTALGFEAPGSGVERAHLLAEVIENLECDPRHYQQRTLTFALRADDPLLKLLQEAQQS
Description: Human DcpS was expressed in Escherichia coli as described in L. Cohen et al., “Nematode m^7GpppG and m3^2,2,7GpppG decapping: activities in Ascaris embryos and characterization of C. elegans scavenger DcpS,” RNA, vol. 10, pp. 1609-1624 (2004). A 15 μM solution of the protein in 20 mM Tris buffer, pH 7.5, containing 50 mM KCl, 0.2 mM EDTA, 1 mM DTT, 0.5 mM PMSF, and 20% glycerol was stored at −80° C. until used. Enzymatic reactions were carried out at 30° C. in 500 μl of 50 mM Tris-HCl, pH 7.9, containing 20 mM MgCl2 and 60 mM (NH4)2SO4. A 40 μM solution of the selected cap analog was treated with 5.0 μl of DcpS for 120 min. At times of 10, 30, 60, and 120 min, a 100-μl sample was collected from the reaction mixture and deactivated by incubation at 90° C. for 2 min. Samples were analyzed without further treatment by analytical RP HPLC with a linear gradient of methanol in 0.1 M KH2PO4, pH 6.0, from 0-50% over 15 min.

[2] = tested on: rabbit reticulocyte lysate system; assay: In vitro translation efficiency of capped luciferase mRNA with 31-base poly(A) tail, method II transcripts; format: biochemical; conditions: for Translation efficiency in comparison to m^7GpppG-LUC-(A)31 mRNA, Experiment No. 4: experiment 4; for Translation efficiency in comparison to m^7GpppG-LUC-(A)31 mRNA, Experiment No. 5: experiment 5; for Translation efficiency in comparison to m^7GpppG-LUC-(A)31 mRNA, Mean: mean of experiments
Description: Capped, polyadenylated luciferase mRNAs were synthesized in vitro by PCR from a dsDNA template that contained the SP6 promoter, the 5′-UTR sequence of rabbit β-globin mRNA, the entire firefly luciferase coding region, and 31 adenosine residues. A typical transcription reaction mixture (40 μl) contained SP6 transcription buffer (Fermentas), 0.7 ug of DNA template, 1 U/μl RiboLock Ribonuclease Inhibitor (Fermentas), 0.5 mM each of ATP, CTP, and UTP, 0.1 mM GTP, and 0.5 mM dinucleotide cap analog. The reaction mixture was incubated at 37° C. for 5 min before addition of SP6 RNA polymerase (Fermentas) to a final concentration of 1 U/μl, and incubation then continued for 45 min at 37° C. The reaction mixture was treated with DNase as in Method I. RNA transcripts were purified with NucAway Spin Columns (Ambion). The integrity of transcripts and quantitation was performed as in Method I.
as §1

[3] = 40 μM cap analog, 30° C., up to 120 min

eIF4E, sequence (P63073 28-217 limits assumed): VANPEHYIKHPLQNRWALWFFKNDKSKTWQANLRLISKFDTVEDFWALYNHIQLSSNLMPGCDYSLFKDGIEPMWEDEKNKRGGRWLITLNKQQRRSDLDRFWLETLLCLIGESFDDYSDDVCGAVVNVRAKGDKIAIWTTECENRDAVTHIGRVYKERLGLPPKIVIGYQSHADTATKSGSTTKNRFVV

Cap analog/eIF4E affinity (KAS) (eIF4E) [μM^−1] | Susceptibility to DcpS (Human DcpS; [3]) | Translation efficiency in comparison to m^7GpppG-LUC-(A)31 mRNA, Experiment No. 4 [2] | Translation efficiency in comparison to m^7GpppG-LUC-(A)31 mRNA, Experiment No. 5 [2] | Translation efficiency in comparison to m^7GpppG-LUC-(A)31 mRNA, Mean [2] | Susceptibility to DcpS (Human DcpS; Table 3) | SMILES | further results
– | – | – | – | – | resistant | C[n+]1cn(C2OC(COP(O)(=[Se])OP(=O)([O-])OP(=O)(O)OCC3OC(n4cnc5c(=O)[nH]c(N)nc54)C(O)C3O)C(O)C2O)c2nc(N)[nH]c(=O)c21 (single isomer, unassigned) [m^7GpSeppG (D2), m^7GpSeppG] | –
– | – | 0.19 | 0.18 | 0.19 | – | Nc1nc2c(ncn2[C@@H]2O[C@H](COP(=O)(O)OP(=O)(O)OP(=O)(O)OC[C@H]3O[C@@H](n4cnc5c(N)ncnc54)[C@H](O)[C@@H]3O)[C@@H](O)[C@H]2O)c(=O)[nH]1 [ApppG, reference compound] | Translation efficiency in comparison with m^7GpppG-LUC mRNA, Experiment No. 1 [1]: 0.34; Translation efficiency in comparison with m^7GpppG-LUC mRNA, Experiment No. 2 [1]: 0.55; Translation efficiency in comparison with m^7GpppG-LUC mRNA, Experiment No. 3 [1]: 0.53; Translation efficiency in comparison with m^7GpppG-LUC mRNA, Experiment No. 4 ([1]; experiment 4): 0.48; Translation efficiency in comparison with m^7GpppG-LUC mRNA, Mean [1]: 0.48; Translation efficiency in comparison to m^7GpppG-LUC-(A)31 mRNA, Experiment No. 1 ([2]; experiment 1): 0.27; Translation efficiency in comparison to m^7GpppG-LUC-(A)31 mRNA, Experiment No. 2 ([2]; experiment 2): 0.16; Translation efficiency in comparison to m^7GpppG-LUC-(A)31 mRNA, Experiment No. 3 ([2]; experiment 3): 0.14

The next lines start with the compound.

SMILES | Cap analog/eIF4E affinity (KAS) (eIF4E) [μM^−1] | Susceptibility to DcpS (Human DcpS; [3]) | Translation efficiency in comparison to m^7GpppG-LUC-(A)31 mRNA, Experiment No. 4 [2] | Translation efficiency in comparison to m^7GpppG-LUC-(A)31 mRNA, Experiment No. 5 [2] | Translation efficiency in comparison to m^7GpppG-LUC-(A)31 mRNA, Mean [2] | Susceptibility to DcpS (Human DcpS; Table 3) | further results
[BH3-]P(=O)(OP(=O)(O)OCC1OC(n2cnc3c(=O)[nH]c(N)nc32)C(O)C1O)OP(=O)(O)OCC1OC(n2c[n+](C)c3c(=O)[nH]c(N)nc32)C(O)C1O (mixture of isomers) [m^7GppBH3pG] | – | – | – | – | – | – | Translation efficiency in comparison with m^7GpppG-LUC mRNA, Experiment No. 1 [1]: 1.66; Translation efficiency in comparison with m^7GpppG-LUC mRNA, Experiment No. 2 [1]: 1.42; Translation efficiency in comparison with m^7GpppG-LUC mRNA, Experiment No. 3 [1]: 1.14; Translation efficiency in comparison with m^7GpppG-LUC mRNA, Mean [1]: 1.41; In vitro translational efficiency, method I ([1]; relative to m^7GpppG-capped luciferase mRNA = 1.0): 1.41 ± 0.26
[BH3-]P(=O)(OP(=O)(O)OCC1OC(n2cnc3c(=O)[nH]c(N)nc32)C(O)C1O)OP(=O)(O)OCC1OC(n2c[n+](C)c3c(=O)[nH]c(N)nc32)C(OC)C1O (single isomer, unassigned) [m2^7,2′-OGppBH3pG (D1), m2^7,2′-OGppBH3pG] | 39.4 ± 1.2 | resistant | 1.87 | 3.44 | 2.66 | – | –
[BH3-]P(=O)(OP(=O)(O)OCC1OC(n2cnc3c(=O)[nH]c(N)nc32)C(O)C1O)OP(=O)(O)OCC1OC(n2c[n+](C)c3c(=O)[nH]c(N)nc32)C(OC)C1O (single isomer, unassigned) [m2^7,2′-OGppBH3pG (D2), m2^7,2′-OGppBH3pG] | 13.2 ± 0.2 | resistant | 3.16 | 3.53 | 3.35 | – | –
CO[C@@H]1[C@H](O)[C@@H](COP(=O)([O-])OP(O)(=S)OP(=O)(O)OC[C@H]2O[C@@H](n3cnc4c(=O)[nH]c(N)nc43)[C@H](O)[C@@H]2O)O[C@H]1[n+]1cn(C)c2c(=O)[nH]c(N)nc21 (single isomer, unassigned) [m2^7,2′-OGppSpG (D1), m2^7,2′-OGppSpG, reference compound] | – | – | 2.92 | 2.83 | 2.88 | – | –
CO[C@@H]1[C@H](O)[C@@H](COP(=O)([O-])OP(O)(=S)OP(=O)(O)OC[C@H]2O[C@@H](n3cnc4c(=O)[nH]c(N)nc43)[C@H](O)[C@@H]2O)O[C@H]1[n+]1cn(C)c2c(=O)[nH]c(N)nc21 (single isomer, unassigned) [m2^7,2′-OGppSpG (D2), m2^7,2′-OGppSpG, reference compound] | – | – | 3.20 | 3.02 | 3.11 | – | –
C[n+]1cn(C2OC(COP(O)(=[Se])OP(=O)([O-])OP(=O)(O)OCC3OC(n4cnc5c(=O)[nH]c(N)nc54)C(O)C3O)C(O)C2O)c2nc(N)[nH]c(=O)c21 (single isomer, unassigned) [m^7GpSeppG (D1), m^7GpSeppG] | – | – | – | – | – | resistant | –
CO[C@@H]1[C@H](O)[C@@H](COP(=O)(O)OP(=O)([O-])OP(=O)(O)OC[C@H]2O[C@@H](n3cnc4c(=O)[nH]c(N)nc43)[C@H](O)[C@@H]2O)O[C@H]1n1c[n+](C)c2c(O)nc(N)nc21 [m2^7,2′-OGpppG, reference compound] | 10.8 ± 0.3 | hydrolyzed | – | – | – | hydrolyzed | Cap analog-eIF4E affinity (KAS) (eIF4E; Table 3): 10.8 ± 0.3 μM^−1
C[n+]1cn([C@@H]2O[C@H](COP(=O)(O)OP(=O)(O)OP(=O)(O)OC[C@H]3O[C@@H](n4c[n+](C)c5c(=O)[nH]c(N)nc54)[C@H](O)[C@@H]3O)[C@@H](O)[C@H]2O)c2nc(N)[nH]c(=O)c21 [m^7Gpppm^7G, reference compound] | 5.0 ± 0.2 | hydrolyzed | – | – | – | – | –
